Source: US20150148417A1, “SYNTHESIS AND BIOLOGICAL STUDIES OF AN ISOMERIC MIXTURE OF (E/Z) ISOXYLITONES AND ITS ANALOGUES” (priority 2013, published 2015)
Entries after “also recorded” stand apart in the source; their conditions may differ.

Key:
[1] = test system: c-Fos protein and mRNA expression; experiment: c-Fos protein and mRNA expression in brain samples of kindled mice; type: in vivo; conditions: 30 mg/kg; compared to PTZ-kindled control animals
Description: Recently we have evaluated the effects of novel anticonvulsant isomeric compounds isoxylitones on the c-Fos protein and mRNA expression in the brain samples of kindled mice and compared it with the normal and untreated kindled groups.

scPTZ-induced kindling = experiment: scPTZ-induced chemical kindling model of epileptogenesis; type: in vivo, mice; conditions: PTZ 50 mg/kg on alternate days
Method: Once screened in the acute seizure model, we next evaluated the effect of test compound on the development on epilepsy process using chemical kindling model of NMRI mice. […] The kindling was induced according to the modified method of De Sarro [23]. Each treatment group consists of 12 male NMRI mice ranging from 20-25 g. All the groups except normal control were given sub-convulsive dose of PTZ i.e., 50 mg/kg subcutaneously once on alternate day between 9:30-11:00 am. The normal control and drug control groups received daily intraperitoneal dose of saline (0.5 mL of 0.9% NaCl) and diazepam (7.5 mg/kg) respectively. Likewise, the test group was administered with the isoxylitones mixture (30 mg/kg, i.p.) once daily. On the day of PTZ administration, the treatment of saline, diazepam or isoxylitones were given 30-40 minutes before the PTZ. After each PTZ injection, animals were placed in observation chambers for 1 hour, and behavioral seizure activity was rated. Animals were scored according to a pre-validated scoring scale for the severity of the seizure activity they show. Seizure patterns during the gradual development of kindling are classified into five distinct behavioral stages as shown in the Table 1. The cumulative kindling score was then calculated and the experiments were terminated once the PTZ-control group reached the score 5. […]

PTZ-induced seizures = experiment: Subcutaneous pentylenetetrazole (scPTZ)-induced acute seizure test; type: in vivo, mice; conditions: for mortality: acute scPTZ-induced mortality test
Method: Subcutaneous Pentylenetetrazole (scPTZ) Seizure Model (Acute Seizures Model)
Anticonvulsant effects of isoxylitones using scPTZ acute seizure test was evaluated by administering three doses i.e. 15, 20, and 30 mg/kg to groups of six mice, at least 30-40 min before subcutaneous administration of convulsive doses of PTZ (90 mg/kg). After administering PTZ, the mice were isolated and placed separately in a clear plexiglass chamber and closely observed for an hour for the presence or absence of different types of seizure patterns i.e. onset of body twitches, threshold seizures, generalized seizures with loss of righting reflex, loss of righting reflex with tonic forelimb seizures, loss of righting reflex with tonic forelimb and hind limb seizures (Table 1). The protection from PTZ-induced mortality was also monitored within 24 hours. In all experiments, diazepam (7.5 mg/kg i.p.) was used as a drug control.
Subcutaneous Pentylenetetrazole-Induced Seizure Test (scPTZ-Induced Acute Seizures Model): […]

SD rats = experiment: Repeated daily dosing toxicity study, 15, 30 and 90 days; type: in vivo; conditions: 30 mg/kg daily
Method: The effective dose of isoxylitones i.e. 30 mg/kg was used in this study. The test was performed in SD rats. The animals divided into three groups and were daily administered with isoxylitones. The first group was sacrificed at the end of 15 days. The second group was sacrificed after 30 days and third group was sacrificed after 90 days. […] At the end, blood was taken via cardiac puncture for biochemistry. Gross anatomical observations were also made for organs as liver, spleen, kidney, heart, and lung and spleen and to examine the organ abnormalities.
The serum levels total bilirubin, GPT, GOT, alkaline phosphatase, and LDH was estimated.

BDNF protein expression = experiment: BDNF immunohistochemistry in brain samples of chemically kindled mice; type: in vivo; conditions: for BDNF immunoreactivity in hippocampus and cortex: vs PTZ kindled group; for cumulative BDNF immunoreactivity (ImageJ): vs PTZ kindling
Method: Brain samples from chemically kindled mice (as described above) were collected immediately after the last treatment of animals with PTZ. Mice were deeply anesthetized and transcardially perfused with ice-cold 50 mL solution containing phosphate buffer saline (PBS) and heparin [1 mL (5000 I.U.) of heparin added for 500 mL of PBS]. Brains were removed from cranial cavity and were gently rinsed in cold PBS. After washing, they were fixed in ice cold 4% paraformaldehyde solution for 24 hr at 4° C. These samples were then placed in a cryoprotectant i.e. 30% sucrose in PBS until they sank to the bottom of the container. The samples were subsequently stored at −80° C. until further processing. Cryostat sagittal sections were prepared using cryostat (Thermo Electron Corporation, UK), frozen brain sections of 30-μm thickness were cut at −20° C. and collected directly on poly-lysine coated slides. At the time of processing, the cryosections were kept overnight in a humid chamber at room temperature containing PBS buffer. […] On the following day, the sections were re-hydrated by rinsing three times (5 min/rinse) with PBS buffer, followed by incubation in blocking solution (pre-filtered with syringe filter of […] size, consisting of 2% bovine serum albumin (BSA), 2% normal goat serum and 0.1% Tween-20) for 30 min at 37° C. For BDNF IHC, the sections were incubated overnight at 4° C. with the BDNF (N-20) primary antibody sc-546 rabbit IgG (Santa Cruz Biotechnology Inc., USA). Following overnight incubation in the primary antibody, sections were washed three times in PBS and then were incubated with secondary antibody, i.e. Alexa Fluor® 546 goat anti-rabbit IgG secondary antibody (1:100 dilution) from Invitrogen (Life Technologies, NY, USA) for 30 min at 37° C. in the dark, followed by a final washing step with PBS. Negative control slides were prepared without primary antibody to rule out the non-specific tissue binding of antibodies. The stained sections were observed under fluorescent microscope (Nikon ECLIPSE TE2000-S).
The schematic diagrams of brain sections adapted from the mouse brain atlas were used as a visual guide for determining the sub-region boundaries. The image processing program ImageJ (National Institutes of Health, MD, USA) was used to analyze the images. This software helps in multiple imaging system data comparisons, taking density (densitometry) in consideration. For each image, background density was determined and subtracted; the remaining particles were considered to represent BDNF expression. Data were obtained from two sections per […] (n=12 animals per group) and presented as means±S.E.M BDNF immunoreactivity in the amygdala, cortex, dorsal hippocampus and thalamus were centered approximately around 3.6 mm posterior to bregma. Within the hippocampus region, measurements were performed over the layer extending from sub-regions CA1-CA3.

mice [2] = experiment: Behavioral analysis (Turner scoring); type: in vivo; conditions: 30 mg/kg, 50 mg/kg and 100 mg/kg
Method: The behavioral analysis was performed adopting the modified procedure as described by Turner, 1972. The effects were recorded using a scoring system (scores were allocated according to the intensity of the symptoms from 0-4) as described by Turner i.e. for stereotype behavior 0: no effect; 1: intermittent; 2: continues 3: intense; 4: severe and for spontaneous activity 0: reduced activity; and 4: increased activity. Animals were transferred into individual cages to allow them to acclimatize to the new environment prior to the experiment.
Blind-testing was employed i.e., the experimenter conducting this study was blinded to the treatment given to the animals in order to avoid any biased interpretations.

mice [3] = experiment: Acute toxicity (Lorke's test) with gross behavioral observation; type: in vivo
Method: The isoxylitone was tested for acute toxicity (LD50) using Lorke's test. This method provides the acute toxicity data with the least consumption of animals i.e. initially only 12 animals are required; on obtaining the dose causing the death in 50% animals further three more animals is used at the same dose to get the data statistically significant. Briefly, animals were given different doses of isoxylitone i.e., 50 mg/kg, 75 mg/kg, 100 mg/kg, 500 mg/kg and 1000 mg/kg. After 24 and 48 hours, the maximum dose that had not induced mortality was considered as the maximum non-fatal dose. LD50 values and the corresponding confidence intervals were determined by the Litchfield and Wilcoxon methods (SPSS, version, USA). Data were expressed as mean values±SEM and tested with ANOVA and Tukey-Kramer tests.
They were observed continuously for 2 hours after administration of the test compounds and then every 30 minutes for next 3 hours and finally after 24 hours. The CNS stimulation was judged by the following signs and symptoms:
Locomotor activity, ataxia, clonic & tonic convulsions, sedation, catalepsy, crouching, lacrimation, salivation or any other signs which deviate from the normal behavior of the animal under observation.

mice [4] = experiment: Inverted screen acute neurotoxicity test; type: in vivo; conditions: 15, 20, 30, 50, 100 mg/kg i.p.; 5, 30, 60, 120 minutes
Method: The neurotoxic manifestation of isoxylitone was determined by inverted screen acute neurotoxicity test developed by Coughenour et al. in 1977. The apparatus consisted of six 13 cm square platforms of 0.6 cm wire mesh supported by metal bars mounted on a metal rod. The rod was supported at both ends and was inverted through an arc of 180°. Mice were pretested on the apparatus the day preceding the experiment, and those failing the task were not used for the subsequent drug test. Testing was carried out at 5, 30, 60 and 120 minutes following i.p. administration of 15 mg/kg, 20 mg/kg, 30 mg/kg, 50 mg/kg and 100 mg/kg of isoxylitone in groups of 6 mice. Mice unable to climb to an upright position for 1 min duration were rated as failures.

[5] = isoxylitones 15 mg/kg i.p. before PTZ 90 mg/kg s.c.
[6] = isoxylitones 20 mg/kg i.p. before PTZ 90 mg/kg s.c.
[7] = isoxylitones 30 mg/kg i.p. before PTZ 90 mg/kg s.c.
[8] = diazepam 7.5 mg/kg i.p. before PTZ 90 mg/kg s.c.

isoxylitones
c-Fos expression [1]: significant reduction of c-Fos expression
development of kindling (seizure score) (scPTZ-induced kindling; isoxylitones 30 mg/kg i.p. once daily, 18 doses, 34 days): did not exhibit seizure score until the end of the kindling experiment; also recorded: complete inhibition in the development of kindling
protection from PTZ-induced loss of righting reflex with tonic-forelimb and tonic hind-limb seizures (PTZ-induced seizures; 30 mg/kg): 100%
prevention of PTZ-induced myoclonic twitches (PTZ-induced seizures; 15 and 20 mg/kg): effectively prevent PTZ-induced myoclonic twitches
protection from PTZ-induced seizure threshold (PTZ-induced seizures; 15 and 20 mg/kg): unable to provide complete protection
anticonvulsant activity in vivo models (PTZ-induced seizures; compounds shown in FIG. 1): strong anticonvulsant activity
Onset of jerks (PTZ-induced seizures; isoxylitones 15 mg/kg i.p. 40-50 min before PTZ 90 mg/kg s.c., mean ± SEM): 440 ± 55 s
Hind Limb Tonic Extension (HLTE) (PTZ-induced seizures; [5]): 1260 ± 20 s
Mortality protection (PTZ-induced seizures; [5]): 66.7%
Rearing & falling (PTZ-induced seizures; [5]): 990 ± 33 s
mortality (PTZ-induced seizures; isoxylitones 15 mg/kg): 33.3%
Hind Limb Tonic Extension (HLTE) (PTZ-induced seizures; [6]): 0 s
Mortality protection (PTZ-induced seizures; [6]): 100%
Onset of jerks (PTZ-induced seizures; [6]): 580 ± 21 s
Rearing & falling (PTZ-induced seizures; [6]): 1120 ± 40 s
mortality (PTZ-induced seizures; isoxylitones 20 mg/kg): 20.8%
Hind Limb Tonic Extension (HLTE) (PTZ-induced seizures; [7]): 0 s
Mortality protection (PTZ-induced seizures; [7]): 100%
Onset of jerks (PTZ-induced seizures; [7]): 900 ± 150 s
Rearing & falling (PTZ-induced seizures; [7]): 0 s
mortality (PTZ-induced seizures; isoxylitones 30 mg/kg): 0%
protection from different seizure patterns of PTZ-induced seizures (twitches, body jerks, clonus, generalized seizure) (PTZ-induced seizures; isoxylitones given prior to PTZ, 15, 20, 30 mg/kg): dose-related protection
mortality or morbidity (SD rats): No mortality or morbidity
BDNF immunoreactivity in hippocampus and cortex (BDNF protein expression; isoxylitones 30 mg/kg): returned the enhanced BDNF immunoreactivity from PTZ kindling to the normal control levels
BDNF immunoreactivity in hippocampus and cortex (BDNF protein expression; isoxylitones 30 mg/kg, listed as isoxylitones): returned the BDNF levels to normal levels
cumulative BDNF immunoreactivity (ImageJ) (BDNF protein expression; isoxylitones 30 mg/kg): significantly suppressed
spontaneous motor activity and behavioral signs (ataxia, abdominal contractions, emesis, hyper-excitability, hyper-locomotion, twitches) (mice [2]): no alteration in the spontaneous motor activity
signs of toxicity / gross behavioral effects (mice [3]; 250 mg/kg, approximately 20 minutes after injection): mild cramps and abdominal stretching
signs of toxicity / gross behavioral effects (mice [3]; 500 mg/kg): signs of discomfort and mild toxicity; also recorded: Ataxia, complete sedation and drowsiness
signs of toxicity / gross behavioral effects (mice [3]; 1000 mg/kg): complete ataxia and sedation
animals showing signs of toxicity or altered behavior (mice [3]; 50 and 100 mg/kg, over 24 hours): None of the animals
acute neurotoxicity (motor function) (mice [4]): did not show sign of acute neurotoxicity

CN1C(=O)CN=C(c2ccccc2)c2cc(Cl)ccc21 [Diazepam, diazepam, reference compound]
development of kindling (seizure pattern) (scPTZ-induced kindling; diazepam 7.5 mg/kg daily): did not exhibit any seizure pattern till the end of the kindling protocol
Hind Limb Tonic Extension (HLTE) (PTZ-induced seizures; [8]): 0 s
Mortality protection (PTZ-induced seizures; [8]): 100%
Onset of jerks (PTZ-induced seizures; [8]): 850 ± 20 s
Rearing & falling (PTZ-induced seizures; [8]): 0 s
BDNF immunoreactivity in hippocampus and cortex (BDNF protein expression; diazepam 7.5 mg/kg): reduced the levels to controls; also recorded: markedly reduced the immunoreactivity
cumulative BDNF immunoreactivity (ImageJ) (BDNF protein expression; diazepam 7.5 mg/kg): significantly suppressed
